# Measured values reported in patent US6716829B2, “Aldosterone antagonist and cyclooxygenase-2 inhibitor combination therapy to prevent or treat inflammation-related cardiovascular disorders” (Pharmacia Corporation, priority 2000, dated 2004).
# Several values for one entry are separate records, joined by “and”; a condition that tells them apart may be missing. Equal entries are not always repeated.
# Tested on: Atrial natriuretic factor (ANP)
# Experiment: Assay C: ANP mRNA in left ventricle by TaqMan RT-PCR
# Assay type: in vivo, Male Sprague-Dawley rats
# Conditions: for ANP mRNA: arbitrary units relative to cyclophilin expression; for ANP mRNA (AU): mean ± SEM after 30 days of treatment, eplerenone dose 100 mg/kg/day, relative to cyclophilin expression
# Protocol: The procedure of Assay B was expanded upon in a further study. […] Myocardial tissue from animals in each treatment group was examined after 7, 14, or 30 days of treatment.
# Potassium chloride supplementation was added to the saline solution in order to prevent the potential hypokalemia associated with aldosterone excess.
# At the time of the surgery, an Alzet 2002 osmotic minipump (Alza Corp., Palo Alto, Calif.) containing either vehicle (9% ethanol/87% propylene glycol/4% dH2O) or 1.0 mg/mL d-aldosterone (Sigma Chemical, St. Louis, Mo.) was inserted subcutaneously at the nape of the neck. Aldosterone was administered at a dose of 0.75 µg/hour. […] Animals were sacrificed from each group (n=8-13) after 7, 14, or 30 days of treatment.
# Following exsanguination, hearts and kidneys were isolated, removed, rinsed in cold phosphate-buffered saline, and blotted dry. Kidneys were immediately bifurcated through the long axis with a razor blade and placed in 10% neutral buffered formalin (NBF, Richard-Allen Scientific, Kalamazoo, Mich.). For the hearts, the right ventricle (RV) was cut away from the left ventricle (LV), both ventricles were weighed using a Mettler AE163 balance (Mettler-Toledo, Inc., Hightstown, N.J.), and the RV was placed in 10% NBF. A 2 mm coronal slab of the LV apex was removed and frozen with dry ice/isopentane for analysis of gene expression and the remaining portion of the LV was placed in 10% NBF for fixation. Final wet trimming was completed after 3-4 days fixation where a second 2 mm coronal slab was removed for hydroxyproline analysis and a third 2 mm slab was removed from the equatorial region for histology.
# The fluorogenic 5′-nuclease assay (TaqMan PCR) using Applied Biosystems' 7700 Sequence Detection System (Applied Biosystems, Foster City, Calif.) allowed for real time detection/quantitation of a specific gene by monitoring the increase in fluorescence of a gene-specific, dye-labeled oligonucleotide probe. Probes for target and reference genes were labeled at the 5′-end with a 6-carboxyfluorescein (6FAM) reporter dye and at the 3′-end with a 6-carboxy-N,N,N′,N′-tetramethylrhodamine (TAMRA) quencher dye. When the probe was annealed to the target gene, fluorescence of 6FAM was prevented by the close proximity of TAMRA. The exonuclease activity of Taq polymerase released the dyes from the oligonucleotide probe by displacing the probe from the target sequence resulting in fluorescence excitation in direct proportion to the amount of target message present. Data analysis was performed using the Sequence Detection System software from Applied Biosystems.
# Primers and probes were designed using Oligo Primer Analysis Software, Version 5.0 (National Biosciences Inc. (NBI)-Wojciech Rychlik, Cascade, Colo.). Primers were synthesized by Life Technologies (Grand Island, N.Y.) and probes were synthesized by Applied Biosystems. Primer/probe sets were designed from known sequences of rat genes to be analyzed. All target gene values were normalized to a reference gene, constitutively expressed cyclophilin. Primer/probe sets sequences can be found in Table 8
# RNA was extracted from frozen (−70° C.) left ventricle (LV) tissue (approximately 10-20 mg) using 1.5 mL RNA-STAT 60 according to manufacturer's instructions (Leedo Medical Laboratories, Inc., Houston, Tex.). Briefly, tissues were homogenized using a tissue homogenizer equipped with a 5 mm probe (Ultra-Turrax T8 Homogenizer, IKA Works, Inc. Wilmington, N.C.). Following homogenization, an equal volume of molecular grade chloroform (Sigma Chemical Co., St. Louis, Mo.) was incubated with periodic mixing for 10 min at room temperature. Samples were centrifuged at 12,000 g for 10 min and RNA was precipitated from the top layer by adding an equal volume of molecular grade isopropanol (Sigma Chemical Co.) followed by an overnight incubation at −80° C.
# [1] = mean ± SEM after 7 days of treatment, eplerenone 100 mg/kg/day
# [2] = mean ± SEM after 14 days of treatment, eplerenone 100 mg/kg/day
Compound,"ANP (14-day protocol, mRNA, individual rats and group Mean, listed as Aldosterone + salt)","ANP (14-day protocol, mRNA, individual rats and group Mean, listed as Aldosterone + salt, mean)","ANP (30-day protocol, mRNA, individual rats and group Mean, listed as Aldosterone + salt)","ANP (30-day protocol, mRNA, individual rats and group Mean, listed as Aldosterone + salt, group mean)",ANP mRNA levels (aldosterone + salt vs vehicle + salt (Tables 11-13)),ANP mRNA [1],ANP mRNA [2],ANP mRNA (AU),"ANP (14-day protocol, mRNA, individual rats and group Mean, listed as Eplerenone + aldosterone + salt)","ANP (14-day protocol, mRNA, individual rats and group Mean, listed as Eplerenone + aldosterone + salt, mean)","ANP mRNA upregulation (after 14 days of treatment, eplerenone 100 mg/kg/day)","ANP mRNA upregulation (after 30 days of treatment, eplerenone 100 mg/kg/day)","ANP (individual rats and group mean, 7 days of treatment, mRNA relative to cyclophilin, aldosterone + salt, eplerenone 100 mg/kg/day)","ANP (individual rats and group mean, 7 days of treatment, mRNA relative to cyclophilin, aldosterone + salt, eplerenone 100 mg/kg/day, group mean)"
C[C@]12CCC(=O)C=C1CC[C@@H]1[C@@H]2[C@@H](O)C[C@]2(C=O)[C@@H](C(=O)CO)CC[C@@H]12 [Aldosterone],4.58 AU and 7.75 AU and 7.34 AU and 4.18 AU and 1.59 AU and 17.81 AU and 6.48 AU and 8.08 AU and 2.51 AU,6.70 AU,23.59 AU and 43.11 AU and 14.83 AU (2×) and 18.90 AU and 23.43 AU and 15.14 AU and 6.77 AU and 20.97 AU,20.17 AU,Significant elevations,8.72 ± 1.51 AU,6.70 ± 1.59 AU,20.17 ± 3.36 AU,–,–,–,–,–,–
COC(=O)[C@@H]1CC2=CC(=O)CC[C@]2(C)[C@@]23O[C@@H]2C[C@@]2(C)[C@@H](CC[C@@]24CCC(=O)O4)[C@H]13 [Eplerenone],–,–,–,–,–,2.77 ± 0.49 AU,6.64 ± 2.22 AU,9.20 ± 2.44 AU,2.84 AU and 3.22 AU and 6.39 AU and 4.04 AU and 25.90 AU and 5.52 AU and 3.57 AU and 2.29 AU and 8.37 AU and 4.24 AU,6.64 AU,not after 14 days,significantly reduced,1.26 AU and 1.81 AU and 0.59 AU and 2.58 AU and 4.48 AU and 4.98 AU and 3.82 AU and 3.59 AU and 0.95 AU and 3.67 AU,2.77 AU
